Structures are written as SMILES. Structures can show the parent of a compound that is named as a salt.

For this test, the system named is HIV-1 gp160 (HXB2 strain) HEK-293 cells fusing with HOS (hCXCR4/hCCR5/hCD4/pHIV-LTR-luciferase) cells. In words: Cell/cell fusion assay (luciferase). It is filed as cell-based. Conditions: Homo sapiens, HEK (tat/rev/gp160 HXB2) + HOS cells, 24 h, read-out: Fusion assay (pIC50) (converted). From the text:
The complete coding sequences of HIV-1 tat (GenBank Accession No. X07861) and rev (GenBank Accession No. M34378) were cloned into pcDNA3.1 expression vectors containing G418 and hygromycin resistance genes, respectively. The complete coding sequence of the HIV-1 (HXB2 strain) gp160 envelope gene (nucleotide bases 6225-8795 of GenBank Accession No. K03455) was cloned into plasmid pCRII-TOPO. The three HIV genes were additionally inserted into the baculovirus shuttle vector, pFastBacMam1, under the transcriptional control of the CMV promoter. A construction of the pHIV-I LTR containing mutated NFkB sequences linked to the luciferase reporter gene was prepared by digesting pcDNA3.1, containing the G418 resistance gene, with Nru I and Bam HI to remove the CMV promoter. LTR-luc was then cloned into the Nru I/Bam HI sites of the plasmid vector. Plasmid preparations were performed after the plasmids were amplified in Escherichia coli strain DH5-alpha. The fidelity of the inserted sequences was confirmed by double-strand nucleotide sequencing using an ABI Prism Model 377 automated sequencer.
Recombinant BacMam baculoviruses were constructed from pFastBacMam shuttle plasmids by using the bacterial cell-based Bac-to-Bac system. Viruses were propagated in Sf9 (Spodoptera frugiperda) cells cultured in Hink's TNM-FH Insect media supplemented with 10% (v/v) fetal bovine serum and 0.1% (v/v) pluronic F-68 according to established protocols.
Human osteosarcoma (HOS) cells that naturally express human CXCR4 were transfected with human CCR5, human CD4 and the pHIV-LTR-luciferase plasmid using FuGENE 6 transfection reagent. Single cells were isolated and grown under selection condition in order to generate a stable HOS (hCXCR4/hCCR5/hCD4/pHIV-LTR-luciferase) clonal cell line. The cells were maintained in Dulbeccos modified Eagles media supplemented with 10% fetal calf serum (FCS), G418 (400 ug/ml), puromycin (1 ug/ml), mycophenolic acid (40 ug/ml), xanthine (250 ug/ml) and hypoxanthine (13.5 ug/ml) to maintain a selection pressure for cells expressing the LTR-luciferase, hCCR5 and hCD4, respectively. Human embryonic kidney (HEK-293) cells stably transfected to express the human macrophage scavenging receptor (Class A, type 1; GenBank Accession No. D90187), were maintained in DMEM/F-12 media (1:1) supplemented with 10% FCS and 1.5 ug/ml puromycin. The expression of this receptor by the HEK-293 cells enhances their ability to stick to tissue culture treated plasticware.
HEK-293 cells were harvested using enzyme-free cell dissociation buffer. The cells were resuspended in DMEM/F-12 media supplemented with 10% FCS and 1.5 ug/ml and counted. Tranductions were performed by direct addition of BacMam baculovirus containing insect cell media to cells. The cells were simultaneously transduced with BacMam baculovirus expressing HIV-1 tat, HIV-1 rev and HIV-1 gp160 (from the HXB2 HIV strain). Routinely an MOI of 10 of each virus was added to the media containing the cells. 2 mM butyric acid was also added to the cells at this stage to increase protein expression in transduced cells. The cells were subsequently mixed and seeded into a flask at 30 million cells per T225. The cells were incubated at 37° C., 5% CO2, 95% humidity for 24 h to allow for protein expression.
HEK and HOS cells were harvested in DMEM/F-12 media containing 2% FCS and DMEM media containing 2% FCS, respectively, with no selection agents added. Compounds were plated as 1 ul spots in 100% DMSO on a 96-well CulturPlate plates. HOS cells (50 ul) were added first to the wells, followed immediately by the HEK cells (50 ul). The final concentration of each cell type was 20,000 cells per well. Following these additions, the cells were returned to a tissue culture incubator (37° C.; 5% CO2/95% air) for an additional 24 h.
Following the 24 h incubation, total cellular luciferase activity was measured using the LucLite Plus assay kit (Packard, Meridien, Conn.). […]
Take `CN1CCN(c2cccc3nc(CN4CCC[C@@H]5CCc6cccnc6[C@@H]54)cn23)CC1` [Example 22, (4aS,10bR)-1-{[5-(4-Methyl-1-piperazinyl)imidazo[1,2-a]pyridin-2-yl]methyl}-1,2,3,4,4a,5,6,10b-octahydro-1,10-phenanthroline]: the IC50 was 158 nM.
For the molecule `CN(C)CCCn1c(CN2CCC[C@@H]3CCc4cccnc4[C@@H]32)nc2ccccc21` [Example 11A, (3-{2-[(4aS,10bR)-3,4,4a,5,6,10b-Hexahydro-1,10-phenanthrolin-1(2H)-ylmethyl]-1H-benzimidazol-1-yl}propyl)dimethylamine], the IC50 is 1260 nM.
Turning to `NCCCn1c(CN2CCC[C@@H]3CCc4cccnc4[C@H]32)nc2ccccc21` (racemic) [Example 8, (trans)-3-[2-(3,4,4a,5,6,10b-Hexahydro-1,10-phenanthrolin-1(2H)-ylmethyl)-1H-benzimidazol-1-yl]-1-propanamine], the IC50 is 490 nM.
Consider `c1cnc2c(c1)CC[C@H]1CCCN(Cc3nc4ccccc4[nH]3)[C@H]21` (racemic) [Example 6, (trans)-1-(1H-Benzimidazol-2-ylmethyl)-1,2,3,4,4a,5,6,10b-octahydro-1,10-phenanthroline], for which the IC50 was 1120 nM.
As to `CN(C)CCCn1c(CN2CCC[C@H]3CCc4cccnc4[C@H]32)nc2ccccc21` [Example 11B, (3-{2-[(4aR,10bS)-3,4,4a,5,6,10b-Hexahydro-1,10-phenanthrolin-1(2H)-ylmethyl]-1H-benzimidazol-1-yl}propyl)dimethylamine], the IC50 was 25.1 nM.
With `c1cnc2c(c1)CC[C@@H]1CCCN(Cc3nc4ccccc4n3Cc3ccncc3)[C@H]21` (racemic) [Example 12, (cis)-1-{[1-(4-Pyridinylmethyl)-1H-benzimidazol-2-yl]methyl}-1,2,3,4,4a,5,6,10b-octahydro-1,10-phenanthroline] the figure was 7940 nM.
In the case of `CN1CCN(c2cccc3[nH]c(CN4CCC[C@@H]5CCc6cccnc6[C@H]54)nc23)CC1` (racemic) [Example 32, (trans)-1-{[4-(4-Methyl-1-piperazinyl)-1H-benzimidazol-2-yl]methyl}-1,2,3,4,4a,5,6,10b-octahydro-1,10-phenanthroline trifluoroacetate], the IC50 was 200 nM.
In the case of `CN(C)CCCn1c(CN2CCC[C@@H]3CCc4cccnc4[C@H]32)nc2ccccc21` (stereo in doubt) [Example 10B, (3-{2-[(4aS,10bS)-3,4,4a,5,6,10b-Hexahydro-1,10-phenanthrolin-1(2H)-ylmethyl]-1H-benzimidazol-1-yl}propyl)dimethylamine], the IC50 was 200 nM.
As for `CN1CCN(c2cccc3nc(CN4CCC[C@H]5CCc6cccnc6[C@H]54)cn23)CC1` [Example 27, (4aR,10bS)-1-{[5-(4-Methyl-1-piperazinyl)imidazo[1,2-a]pyridin-2-yl]methyl}-1,2,3,4,4a,5,6,10b-octahydro-1,10-phenanthroline], the IC50 is 1.26 nM.
On to `CN1CCN(c2cccc3nc(CN4CCC[C@@H]5CCc6cccnc6[C@H]54)cn23)CC1` (racemic) [Example 15A, (trans)-1-{[5-(4-Methyl-1-piperazinyl)imidazo[1,2-a]pyridin-2-yl]methyl}-1,2,3,4,4a,5,6,10b-octahydro-1,10-phenanthroline], for which the IC50 was 77.6 nM.
As to `CN1CCN(c2cccc3nc(CN4CCC[C@H]5CCc6cccnc6[C@H]54)cn23)CC1` (racemic) [Example 15B, (cis)-1-{[5-(4-Methyl-1-piperazinyl)imidazo[1,2-a]pyridin-2-yl]methyl}-1,2,3,4,4a,5,6,10b-octahydro-1,10-phenanthroline], the IC50 was 5.5 nM.
The same measure for `CN1CCCC(Cn2c(CN3CCC[C@H]4CCc5cccnc5[C@H]43)nc3ccccc32)C1` (mixture of isomers) [Example 13, (cis)-1-({1-[(1-Methyl-3-piperidinyl)methyl]-1H-benzimidazol-2-yl}methyl)-1,2,3,4,4a,5,6,10b-octahydro-1,10-phenanthroline]: 31.6 nM; for `NCCCn1c(CN2CCC[C@H]3CCc4cccnc4[C@H]32)nc2ccccc21` (racemic) [Example 9, (cis)-3-[2-(3,4,4a,5,6,10b-Hexahydro-1,10-phenanthrolin-1(2H)-ylmethyl)-1H-benzimidazol-1-yl]-1-propanamine]: 89.1 nM.
With `c1cnc2c(c1)CC[C@@H]1CCCN(Cc3nc4ccccc4[nH]3)[C@H]21` (racemic) [Example 7, (cis)-1-(1H-Benzimidazol-2-ylmethyl)-1,2,3,4,4a,5,6,10b-octahydro-1,10-phenanthroline] the figure was 3160 nM.
`CN1CCN(c2cccc3nc(CN4CCC[C@H]5CCc6cccnc6[C@H]54)[nH]c23)CC1` (racemic) [Example 33, (cis)-1-{[4-(4-Methyl-1-piperazinyl)-1H-benzimidazol-2-yl]methyl}-1,2,3,4,4a,5,6,10b-octahydro-1,10-phenanthroline]: the IC50 is 0.398 nM.
For `CN(C)CCCn1c(CN2CCC[C@H]3CCc4cccnc4[C@@H]32)nc2ccccc21` (stereo in doubt) [Example 10A, (3-{2-[(4aR,10bR)-3,4,4a,5,6,10b-Hexahydro-1,10-phenanthrolin-1(2H)-ylmethyl]-1H-benzimidazol-1-yl}propyl)dimethylamine], the IC50 was 417 nM.
